Values joined by “and” are separate entries in the source; they are usually repeats but may differ in a detail not shown here. Equal entries are not always repeated.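 All cell lines were grown in 96-well plates and treated with compound for 48 hours. The concentration for 50% growth inhibition is given as GI50. Definition used: TGI = concentration required for complete inhibition of growth.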
Columns and labels:
Test in all cases: DTP human tumour cell line panel, 48 h
HT29 colon = tested on: HT29 colon
MOLT-4 leukemia = tested on: MOLT-4 leukemia
CCRF-CEM leukemia = tested on: CCRF-CEM leukemia
KM12 colon = tested on: KM12 colon
SNB-75 CNS = tested on: SNB-75 CNS
PC-3 prostate = tested on: PC-3 prostate
UACC-257 melanoma = tested on: UACC-257 melanoma
HCT-116 colon = tested on: HCT-116 colon
IGROV1 ovarian = tested on: IGROV1 ovarian
786-0 renal = tested on: 786-0 renal
LOX IMVI melanoma = tested on: LOX IMVI melanoma
EKVX NSCLC = tested on: EKVX NSCLC
HS 578T breast = tested on: HS 578T breast
MALME-3M melanoma = tested on: MALME-3M melanoma
SN12C renal = tested on: SN12C renal
SNB-19 CNS = tested on: SNB-19 CNS
SR leukemia = tested on: SR leukemia
TK-10 renal = tested on: TK-10 renal
COLO 205 colon = tested on: COLO 205 colon
SK-MEL-28 melanoma = tested on: SK-MEL-28 melanoma
HOP-62 NSCLC = tested on: HOP-62 NSCLC
OVCAR-8 ovarian = tested on: OVCAR-8 ovarian
DU-145 prostate = tested on: DU-145 prostate
RXF 393 renal = tested on: RXF 393 renal
A498 renal = tested on: A498 renal
SK-MEL-2 melanoma = tested on: SK-MEL-2 melanoma
SF-268 CNS = tested on: SF-268 CNS
BT-549 breast = tested on: BT-549 breast
MCF7 breast = tested on: MCF7 breast
HCT-15 colon = tested on: HCT-15 colon
HCC-2998 colon = tested on: HCC-2998 colon
SK-MEL-5 melanoma = tested on: SK-MEL-5 melanoma
UO-31 renal = tested on: UO-31 renal
OVCAR-4 ovarian = tested on: OVCAR-4 ovarian
A549 NSCLC = tested on: A549 NSCLC
CAKI-1 renal = tested on: CAKI-1 renal
HL-60(TB) leukemia = tested on: HL-60(TB) leukemia
MDA-MB-231 breast = tested on: MDA-MB-231 breast
NCI-H23 lung = tested on: NCI-H23 lung
OVCAR-5 ovarian = tested on: OVCAR-5 ovarian
MDA-MB-435 = tested on: MDA-MB-435
NCI-H226 lung = tested on: NCI-H226 lung
SW-620 colon = tested on: SW-620 colon
SK-OV-3 ovarian = tested on: SK-OV-3 ovarian
ACHN renal = tested on: ACHN renal
RPMI-8226 leukemia = tested on: RPMI-8226 leukemia
K-562 leukemia = tested on: K-562 leukemia
SF-295 CNS = tested on: SF-295 CNS
NCI/ADR-RES ovarian = tested on: NCI/ADR-RES ovarian
T-47D breast = tested on: T-47D breast
U251 CNS = tested on: U251 CNS
M14 melanoma = tested on: M14 melanoma
NCI-H460 lung = tested on: NCI-H460 lung
UACC-62 melanoma = tested on: UACC-62 melanoma
SF-539 CNS = tested on: SF-539 CNS
NCI-H522 lung = tested on: NCI-H522 lung
HOP-92 NSCLC = tested on: HOP-92 NSCLC
OVCAR-3 ovarian = tested on: OVCAR-3 ovarian

CN(C)c1ccc2nc3ccc(=[N+](C)C)cc-3sc2c1
GI50 (HT29 colon): 3.41 µM and 4.14 µM
TGI (HT29 colon): 11.2 µM and 20.8 µM
GI50 (MOLT-4 leukemia): 1.11 µM and 0.934 µM
TGI (MOLT-4 leukemia): > 27.6 µM and 15.4 µM
GI50 (CCRF-CEM leukemia): 0.394 µM and 0.685 µM
GI50 (KM12 colon): 0.724 µM and 0.696 µM
TGI (KM12 colon): 19.6 µM and 15.7 µM
GI50 (SNB-75 CNS): 1.79 µM and 2.92 µM
TGI (SNB-75 CNS): 10.1 µM and 17.3 µM
GI50 (PC-3 prostate): 0.161 µM and 0.288 µM
TGI (PC-3 prostate): 2.71 µM and 16.2 µM
GI50 (UACC-257 melanoma): 0.219 µM and 0.411 µM
TGI (UACC-257 melanoma): 0.711 µM and 2.36 µM
GI50 (HCT-116 colon): 0.29 µM and 0.373 µM
TGI (HCT-116 colon): 2.45 µM and 5.76 µM
GI50 (IGROV1 ovarian): 1.18 µM and 2.03 µM
TGI (IGROV1 ovarian): 11.5 µM and 6.47 µM
GI50 (786-0 renal): 2.68 µM and 2.92 µM
TGI (786-0 renal): 17.6 µM and 27.1 µM
GI50 (LOX IMVI melanoma): 0.404 µM and 0.65 µM
TGI (LOX IMVI melanoma): 7.61 µM and 10.4 µM
GI50 (EKVX NSCLC): 4.24 µM and 0.804 µM
TGI (EKVX NSCLC): 28.3 µM and 29.4 µM
GI50 (HS 578T breast): 3.08 µM and 3.62 µM
TGI (HS 578T breast): > 28.2 µM and 35.6 µM
GI50 (MALME-3M melanoma): 0.422 µM and 0.848 µM
TGI (MALME-3M melanoma): 1.77 µM and 3.57 µM
GI50 (SN12C renal): 0.71 µM and 1.38 µM
TGI (SN12C renal): 7.05 µM and 12.6 µM
GI50 (SNB-19 CNS): 0.908 µM and 0.543 µM
TGI (SNB-19 CNS): 16.3 µM and 46.1 µM
GI50 (SR leukemia): 1.03 µM and 1.45 µM
TGI (SR leukemia): 57.7 µM and 46.2 µM
GI50 (TK-10 renal): 3.98 µM and 1.42 µM
TGI (TK-10 renal): 16.1 µM and 17.2 µM
GI50 (COLO 205 colon): 0.497 µM and 0.47 µM
TGI (COLO 205 colon): 1.96 µM and 5.3 µM
GI50 (SK-MEL-28 melanoma): 1.52 µM and 4.41 µM
TGI (SK-MEL-28 melanoma): 4.69 µM and 18.2 µM
GI50 (HOP-62 NSCLC): 2.47 µM and 4.89 µM
TGI (HOP-62 NSCLC): 15.9 µM and 21.9 µM
GI50 (OVCAR-8 ovarian): 0.261 µM and 0.39 µM
GI50 (DU-145 prostate): 3.4 µM and 3.86 µM
TGI (DU-145 prostate): 16 µM and 14.8 µM
GI50 (RXF 393 renal): 2.73 µM and 10.1 µM
TGI (RXF 393 renal): 18 µM and 27.9 µM
GI50 (A498 renal): 4.12 µM and 6.21 µM
TGI (A498 renal): 22 µM and 55.8 µM
GI50 (SK-MEL-2 melanoma): 1.44 µM and 0.544 µM
TGI (SK-MEL-2 melanoma): 3.68 µM and 13.6 µM
GI50 (SF-268 CNS): 0.446 µM and 1.08 µM
TGI (SF-268 CNS): 15.4 µM and 15.1 µM
GI50 (BT-549 breast): 9.74 µM and 3.26 µM
TGI (BT-549 breast): 24.2 µM and 22.7 µM
GI50 (MCF7 breast): 0.304 µM and 0.324 µM
TGI (MCF7 breast): 12.2 µM and 14.5 µM
GI50 (HCT-15 colon): 0.446 µM and 0.795 µM
TGI (HCT-15 colon): 18.2 µM and > 100 µM
GI50 (HCC-2998 colon): 0.745 µM and 6.32 µM
TGI (HCC-2998 colon): 17.8 µM and 36 µM
GI50 (SK-MEL-5 melanoma): 0.146 µM and 0.39 µM
TGI (SK-MEL-5 melanoma): 0.412 µM and 1.98 µM
GI50 (UO-31 renal): 3.65 µM and 6.28 µM
TGI (UO-31 renal): 19.8 µM and 29.1 µM
GI50 (OVCAR-4 ovarian): 0.192 µM and 0.295 µM
TGI (OVCAR-4 ovarian): 1.25 µM and 3.79 µM
GI50 (A549 NSCLC): 0.236 µM and 0.321 µM
TGI (A549 NSCLC): 3.3 µM and 12 µM
GI50 (CAKI-1 renal): 2.17 µM and 1.96 µM
TGI (CAKI-1 renal): 19.4 µM and 8.5 µM
GI50 (HL-60(TB) leukemia): 0.0938 µM and 0.187 µM
TGI (HL-60(TB) leukemia): 2.28 µM and 1.35 µM
GI50 (MDA-MB-231 breast): 0.512 µM and 1.36 µM
TGI (MDA-MB-231 breast): 12.9 µM and 16.9 µM
GI50 (NCI-H23 lung): 0.322 µM and 0.597 µM
TGI (NCI-H23 lung): 4.99 µM and 12.7 µM
GI50 (OVCAR-5 ovarian): 0.599 µM and 0.642 µM
TGI (OVCAR-5 ovarian): 11.3 µM and 17.3 µM
GI50 (MDA-MB-435): 0.976 µM and 1.46 µM
TGI (MDA-MB-435): 3.26 µM and 4.02 µM
GI50 (NCI-H226 lung): 1.82 µM and 12.7 µM
TGI (NCI-H226 lung): 16.6 µM and 36.6 µM
GI50 (SW-620 colon): 0.344 µM and 0.657 µM
TGI (SW-620 colon): 13.5 µM and 19.1 µM
GI50 (SK-OV-3 ovarian): 2.63 µM and 5.11 µM
TGI (SK-OV-3 ovarian): 12.6 µM and 25.9 µM
GI50 (ACHN renal): 2.65 µM and 3.04 µM
TGI (ACHN renal): 15.3 µM and 24.1 µM
GI50 (RPMI-8226 leukemia): 0.214 µM and 1.23 µM
TGI (RPMI-8226 leukemia): 26 µM and 39.6 µM
GI50 (K-562 leukemia): 0.469 µM and 0.509 µM
TGI (K-562 leukemia): 18.7 µM and 48.5 µM
GI50 (SF-295 CNS): 0.329 µM and 0.934 µM
TGI (SF-295 CNS): 10.3 µM and 10.2 µM
GI50 (NCI/ADR-RES ovarian): 0.408 µM and 0.563 µM
TGI (NCI/ADR-RES ovarian): 23.1 µM and 14.2 µM
GI50 (T-47D breast): 0.36 µM and 0.558 µM
TGI (T-47D breast): 3.5 µM and 12.7 µM
GI50 (U251 CNS): 0.248 µM and 0.341 µM
TGI (U251 CNS): 2.23 µM and 11.2 µM
GI50 (M14 melanoma): 0.337 µM and 0.407 µM
TGI (M14 melanoma): 1.49 µM and 3.4 µM
GI50 (NCI-H460 lung): 0.431 µM and 1.03 µM
TGI (NCI-H460 lung): 14.9 µM and > 37.5 µM
GI50 (UACC-62 melanoma): 0.808 µM and 2.64 µM
TGI (UACC-62 melanoma): 2.61 µM and 15.2 µM
GI50 (SF-539 CNS): 0.139 µM and 0.379 µM
TGI (SF-539 CNS): 9.82 µM and 14.7 µM
GI50 (NCI-H522 lung): 0.232 µM and 0.449 µM
TGI (NCI-H522 lung): 0.906 µM and 4.5 µM
GI50 (HOP-92 NSCLC): 2.59 µM and 1.74 µM
TGI (HOP-92 NSCLC): 24.8 µM and 11.1 µM
GI50 (OVCAR-3 ovarian): 0.307 µM and 0.3 µM
TGI (OVCAR-3 ovarian): 1.66 µM
